Measured values from ChEMBL document CHEMBL1201862, “PubChem BioAssay data set” (2004).
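Compound exposure: 48 hours, 5 concentrations, 96-well plates. GI50 = concentration required for 50% inhibition of growth.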 The source made the active and inactive calls. No stated cut-off is given here; in the data, active = GI50 up to about 1.1 µM and inactive = higher.

Experiments:
Assay in all cases: inhibition of tumour cell growth, NCI panel, 48 h
[1] = system: UO-31
[2] = system: SW-620
[3] = system: SNB-19
[4] = system: HL-60
[5] = system: NCI-H460
[6] = system: KM12
[7] = system: RPMI-8226
[8] = system: SF-268
[9] = system: IGROV-1
[10] = system: ACHN
[11] = system: COLO 205
[12] = system: A498
[13] = system: OVCAR-3
[14] = system: UACC-257
[15] = system: SK-MEL-28
[16] = system: OVCAR-5
[17] = system: HOP-92
[18] = system: NCI-H522

Measured: GI50

CCCc1c(-c2ccccc2)[nH]c2ccccc2c1=O
inactive: [1] 19.2 µM | [2] > 100 µM | [3] 65.2 µM | [4] > 100 µM | [5] 29.9 µM | [6] 27.7 µM | [7] 54.6 µM | [8] 72.4 µM | [9] > 100 µM | [10] 34.8 µM | [11] > 100 µM | [12] 29 µM | [13] 31.5 µM | [14] > 100 µM | [15] 33.7 µM | [16] 45 µM | [17] > 100 µM

O=C(N[C@H]1c2ccsc2/C(=N/O)[C@H]1O)C(F)(F)F
inactive: [1] > 100 µM | [2] > 100 µM | [3] > 100 µM | [4] > 100 µM | [5] > 100 µM | [8] > 100 µM | [9] > 100 µM | [11] > 100 µM | [12] > 100 µM | [13] > 100 µM | [14] > 100 µM | [15] > 100 µM | [16] > 100 µM | [17] > 100 µM

Cc1cc(C)c(NC(=O)/C=C/c2ccccc2)c(C)c1
inactive: [1] > 100 µM | [2] > 100 µM | [3] 61.9 µM | [4] 36.1 µM | [5] > 100 µM | [18] 6 µM | [6] > 100 µM | [7] > 100 µM | [8] > 100 µM | [9] > 100 µM | [10] 80.2 µM | [13] > 100 µM | [14] > 100 µM | [15] > 100 µM | [16] > 100 µM | [17] 56.6 µM

C#CC(O)(c1nc2ccccc2s1)c1nc2ccccc2s1
inactive: [1] 15 µM | [2] 33.7 µM | [3] 36.9 µM | [4] 21 µM | [18] 17.6 µM | [6] 29.4 µM | [7] 21 µM | [8] 28.5 µM | [9] 15.2 µM | [10] 23 µM | [11] 17.7 µM | [12] 16.9 µM | [13] 18.1 µM | [14] 25.1 µM | [15] 40.7 µM | [16] 23.6 µM | [17] 16.1 µM

C1=C2C3=[N+](CCCCC3)CC2Cc2ccsc21 (stereo not drawn)
inactive: [1] > 100 µM | [2] 93.5 µM | [3] 81.1 µM | [4] 66.1 µM | [5] 29.9 µM | [18] 39.7 µM | [6] 30.4 µM | [8] 76.2 µM | [9] > 100 µM | [10] > 100 µM | [11] 40.6 µM | [12] 39.8 µM | [13] 56.5 µM | [14] 23.3 µM | [15] > 100 µM | [16] > 100 µM | [17] 76.7 µM

C=CC1(c2ccc3ccccc3c2)OCC(CC)O1 (stereo not drawn)
inactive: [1] 63.5 µM | [2] 46.2 µM | [3] 94 µM | [4] 4.37 µM | [5] 48.2 µM | [18] 40.6 µM | [6] 44.1 µM | [7] 46.3 µM | [8] 71.6 µM | [9] 33.9 µM | [10] 66.1 µM | [11] 36.1 µM | [13] 47 µM | [14] 60.4 µM | [15] > 100 µM | [16] 48.9 µM | [17] 36.7 µM

COc1cc2c(cc1OC)C1Cc3cc(OC)c(OC)cc3C(C2)O1
inactive: [1] 83.8 µM | [2] > 100 µM | [3] > 100 µM | [5] > 100 µM | [6] > 100 µM | [7] 35.2 µM | [8] > 100 µM | [9] 49.8 µM | [10] > 100 µM | [11] > 100 µM | [13] > 100 µM | [14] > 100 µM | [15] > 100 µM | [16] > 100 µM | [17] > 100 µM
